Where a SMILES comes first, the peptide text is derived from it. Bridges are numbered along the chain shown (N, C = ends). [ ]: non-standard residue; d: D form. The star is where a group is joined. Biotin = O=C1N[C@H]2[C@H](CS[C@H]2CCCCC(=O)*)N1; 2Nal = N[C@@H](Cc1ccc2ccccc2c1)C(=O)O; Gly(cPent) = N[C@H](C(=O)O)C1CCCC1; Hyp = O=C(O)[C@@H]1C[C@@H](O)CN1; Pen = CC(C)(S)[C@H](N)C(=O)O; Api = NC1(C(=O)O)CCNCC1; Ahx = NCCCCCC(=O)O
System: anti-hemagglutinin antibody clone 12ca5
Experiment: Biolayer interferometry
Assay type: binding, mouse
Settings: off-target control

With `CC1(C)SSC[C@H](NC(=O)[C@H](CO)NC(=O)[C@@H](NC(=O)[C@H](CO)NC(=O)C2(NC(=O)[C@H](Cc3ccc4ccccc4c3)NC(=O)[C@H](CO)NC(=O)CCCCCNC(=O)[C@@H](N)CCCCNC(=O)CCCC[C@@H]3SC[C@@H]4NC(=O)N[C@@H]43)CCNCC2)C2CCCC2)C(=O)N2C[C@H](O)C[C@H]2C(=O)N[C@@H](CO)C(=O)N[C@@H](Cc2ccc(O)cc2)C(=O)N[C@@H](CO)C(=O)N[C@@H](CO)C(=O)N2C[C@H](O)C[C@H]2C(=O)N[C@@H]1C(=O)N[C@@H](CO)C(N)=O` [NCBP-4 Ser Sub] (H-K(Biotin)[Ahx]S[2Nal][Api]S[Gly(cPent)]SC[Hyp]SYSS[Hyp][Pen]S-NH2; disulfide 9-16; N-terminus assumed) the “nonspecific binding to 12ca5 by BLI (in words)” value was “no affinity”.
